Measurements as given in US8247211B2, “Glycopeptide antibiotics” (American Cyanamid Company, priority 2001, dated 2012).
In brackets after ≈: the same amount, converted by molar mass.

Tests used:
[1] = tested on: Enterococcus sp.; assay: In vitro antibacterial evaluation: minimum inhibitory concentration (MIC), broth dilution method; format: cell-based
In short: (§1)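 Using Muller-Hinton II […] and an inoculum of 5×10^5 CFU/mL, antibiotic dilutions from 64 down to 0.06 μg/mL were tested following NCCLS M7-A2. The MIC is the lowest concentration inhibiting growth, including in methicillin-, penicillin- or vancomycin-resistant clinical isolates.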

[2] = tested on: Escherichia coli; assay: as above; format: cell-based
In short: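 NCCLS M7-A2 broth dilution; Muller-Hinton II […]; 5×10^5 CFU/mL; 64-0.06 μg/mL. MIC = lowest concentration with no growth.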

[3] = tested on: Staphylococcus sp.; assay: as above; format: cell-based; settings: broth dilution, 18 hours at 35° C.
In short: as §1

[4] = tested on: Streptococcus sp.; assay: as above; format: cell-based
In short: as §1

[5] = tested on: Staphylococcus aureus-SMITH (GC 4543); assay: Acute lethal infection in mice (ED50); format: in vivo; settings: female CD-1 mice, intraperitoneal challenge, intravenous dose 30 min. after infection, 7 day survival ratios
Experimental: The therapeutic effects of glycopeptide antibiotics of Formula I are determined against acute lethal infections with S. aureus (strain Smith), a penicillin resistant strain of S. pneumoniae (strain GC 1894), and a vancomycin resistant strain of E. fecalis (strain GC 6189 and GC 2246). Female mice, CD-1 (Charles River Laboratories), 20 +1-2 gm, are challenged by intraperitoneal injection of sufficient bacteria (suspended in Trypticase Soy Broth or hog gastric mucin) to kill non-treated controls within 24-48 hr. Antibacterial agents, contained in 0.2 mL of saline or 5% dextrose solution, are administered intravenously 30 min. after infection. Five mice are treated at each dose level. The 7 day survival ratios from 3 separate tests are pooled for calculation of median effective dose (ED50).

CC(c1ccccc1)C1NC(=O)CNC(=O)C(CO)NC(=O)C(C(O)C2CNC(=N)N2C2OC(CO)C(O)C(O)C2O)NC(=O)C(C(O)C2CNC(=N)N2)NC(=O)C(Cc2ccc(OC3OC(CO)C(OC4OC5COC(c6cccc(-c7ccccc7)c6)OC5C(O)C4O)C(O)C3O)cc2)NC1=O (stereo not drawn) [Example 154, Cyclo[glycyl-β-methylphenylalanyl-O-[4-O-[4,6-O-(3-phenylbenzylidene)hexopyranosyl)-hexopyranosyl]tyrosyl-3-(2-iminoimidazolidin-4-yl)seryl-3-(3-hexopyranosyl-2-iminoimidazolidin-4-yl)serylseryl]]
MIC Enterococcus avium (GC 4558) ([1]; Enterococcus avium (GC 4558), broth dilution, 18 hours at 35° C.): 1 µg/mL (≈ 0.685 µM)
MIC Enterococcus faecalis (ATCC 29212) ([1]; Enterococcus faecalis (ATCC 29212), broth dilution, 18 hours at 35° C.): 2 µg/mL (≈ 1.37 µM)
MIC Enterococcus faecalis (GC 4552) ([1]; Enterococcus faecalis (GC 4552), broth dilution, 18 hours at 35° C.): 2 µg/mL (≈ 1.37 µM)
MIC Enterococcus faecalis (GC 4553) ([1]; Enterococcus faecalis (GC 4553), broth dilution, 18 hours at 35° C.): 2 µg/mL (≈ 1.37 µM)
MIC Enterococcus faecalis (GC 4554) ([1]; Enterococcus faecalis (GC 4554), broth dilution, 18 hours at 35° C.): 2 µg/mL (≈ 1.37 µM)
MIC Enterococcus faecalis (GC 6189) ([1]; Enterococcus faecalis (GC 6189), broth dilution, 18 hours at 35° C.): 2 µg/mL (≈ 1.37 µM)
MIC Enterococcus faecium (GC 2243) ([1]; Enterococcus faecium (GC 2243), broth dilution, 18 hours at 35° C.): 2 µg/mL (≈ 1.37 µM)
MIC Enterococcus faecium (GC 4556) ([1]; Enterococcus faecium (GC 4556), broth dilution, 18 hours at 35° C.): 2 µg/mL (≈ 1.37 µM)
MIC Enterococcus faecium (GC 4557) ([1]; Enterococcus faecium (GC 4557), broth dilution, 18 hours at 35° C.): 2 µg/mL (≈ 1.37 µM)
MIC Enterococcus faecalis (ATCC 29212) ([1]; strain ATCC 29212): 2 µg/mL (≈ 1.37 µM)
MIC Enterococcus faecalis (GC 2242) ([1]; strain GC 2242): 2 µg/mL (≈ 1.37 µM)
MIC Enterococcus faecium (GC 2243) ([1]; strain GC 2243): 2 µg/mL (≈ 1.37 µM)
MIC Enterococcus faecalis (GC 2691) ([1]; strain GC 2691): 2 µg/mL (≈ 1.37 µM)
MIC Enterococcus faecalis (GC 3059) ([1]; strain GC 3059): 2 µg/mL (≈ 1.37 µM)
MIC Enterococcus faecalis (GC 4552) ([1]; strain GC 4552): 2 µg/mL (≈ 1.37 µM)
MIC Enterococcus faecalis (GC 4553) ([1]; strain GC 4553): 2 µg/mL (≈ 1.37 µM)
MIC Enterococcus faecalis (GC 4554) ([1]; strain GC 4554): 2 µg/mL (≈ 1.37 µM)
MIC Enterococcus faecium (GC 4556) ([1]; strain GC 4556): 2 µg/mL (≈ 1.37 µM)
MIC Enterococcus faecium (GC 4557) ([1]; strain GC 4557): 2 µg/mL (≈ 1.37 µM)
MIC Enterococcus avium (GC 4558) ([1]; strain GC 4558): 1 µg/mL (≈ 0.685 µM)
MIC Enterococcus faecalis (GC 6189) ([1]; strain GC 6189): 2 µg/mL (≈ 1.37 µM)
MIC Escherichia coli (ATCC 25922) ([2]; strain ATCC 25922): 32 µg/mL (≈ 21.9 µM)
MIC Escherichia coli (GC 4559) ([2]; strain GC 4559): 32 µg/mL (≈ 21.9 µM)
MIC Escherichi coli (GC 4560) ([2]; strain GC 4560): 2 µg/mL (≈ 1.37 µM)
MIC Coagulase Negative Staphylococcus (GC 4547) ([3]; 5×10^5 CFU/mL): 2 µg/mL (≈ 1.37 µM)
MIC Coagulase Negative Staphylococcus (GC 4548) ([3]; 5×10^5 CFU/mL): 0.5 µg/mL (≈ 0.343 µM)
MIC Coagulase Negative Staphylococcus (GC 4549) ([3]; 5×10^5 CFU/mL): 0.25 µg/mL (≈ 0.171 µM)
MIC Coagulase Negative Staphylococcus (GC 4551) ([3]; 5×10^5 CFU/mL): 2 µg/mL (≈ 1.37 µM)
MIC Coagulase Negative Staphylococcus (GC 6257) ([3]; 5×10^5 CFU/mL): 1 µg/mL (≈ 0.685 µM)
MIC Staphylococcus aureus (ATCC 29213) ([3]; 5×10^5 CFU/mL): 1 µg/mL (≈ 0.685 µM)
MIC Staphylococcus aureus (GC 1131) ([3]; 5×10^5 CFU/mL): 1 µg/mL (≈ 0.685 µM)
MIC Staphylococcus aureus (GC 3051) ([3]; 5×10^5 CFU/mL): 1 µg/mL (≈ 0.685 µM)
MIC Staphylococcus aureus (GC 3053) ([3]; 5×10^5 CFU/mL): 2 µg/mL (≈ 1.37 µM)
MIC Staphylococcus aureus (GC 4541) ([3]; 5×10^5 CFU/mL): 1 µg/mL (≈ 0.685 µM)
MIC Staphylococcus aureus (GC 4542) ([3]; 5×10^5 CFU/mL): 1 µg/mL (≈ 0.685 µM)
MIC Staphylococcus aureus (GC 4544) ([3]; 5×10^5 CFU/mL): 2 µg/mL (≈ 1.37 µM)
MIC Staphylococcus aureus (GC 4545) ([3]; 5×10^5 CFU/mL): 1 µg/mL (≈ 0.685 µM)
MIC Staphylococcus aureus-SMITH (GC 4543) ([3]; 5×10^5 CFU/mL): 1 µg/mL (≈ 0.685 µM)
MIC Staphylococcus haemolyticus (GC 4546) ([3]; 5×10^5 CFU/mL): 1 µg/mL (≈ 0.685 µM)
MIC Staphylococcus aureus (ATCC 29213) ([3]; strain ATCC 29213): 1 µg/mL (≈ 0.685 µM)
MIC Staphylococcus aureus (GC 1131) ([3]; strain GC 1131): 1 µg/mL (≈ 0.685 µM)
MIC Staphylococcus aureus (GC 3051) ([3]; strain GC 3051): 1 µg/mL (≈ 0.685 µM)
MIC Staphylococcus aureus (GC 3053) ([3]; strain GC 3053): 2 µg/mL (≈ 1.37 µM)
MIC Staphylococcus aureus (GC 4541) ([3]; strain GC 4541): 1 µg/mL (≈ 0.685 µM)
MIC Staphylococcus aureus (GC 4542) ([3]; strain GC 4542): 1 µg/mL (≈ 0.685 µM)
MIC Staphylococcus aureus-SMITH (GC 4543) ([3]; strain GC 4543): 1 µg/mL (≈ 0.685 µM)
MIC Staphylococcus aureus (GC 4544) ([3]; strain GC 4544): 2 µg/mL (≈ 1.37 µM)
MIC Staphylococcus aureus (GC 4545) ([3]; strain GC 4545): 1 µg/mL (≈ 0.685 µM)
MIC Staphylococcus haemolyticus (GC 4546) ([3]; strain GC 4546): 1 µg/mL (≈ 0.685 µM)
MIC Coagulase Negative Staphylococcus (GC 4547) ([3]; strain GC 4547): 2 µg/mL (≈ 1.37 µM)
MIC Coagulase Negative Staphylococcus (GC 4548) ([3]; strain GC 4548): 0.5 µg/mL (≈ 0.343 µM)
MIC Coagulase Negative Staphylococcus (GC 4549) ([3]; strain GC 4549): 0.25 µg/mL (≈ 0.171 µM)
MIC Coagulase Negative Staphylococcus (GC 4551) ([3]; strain GC 4551): 2 µg/mL (≈ 1.37 µM)
MIC Coagulase Negative Staphylococcus (GC 6257) ([3]; strain GC 6257): 1 µg/mL (≈ 0.685 µM)
MIC Streptococcus pneumoniae (ATCC 6301) ([4]; strain ATCC 6301): <0.06 µg/mL
MIC Streptococcus pneumoniae (GC 1894) ([4]; strain GC 1894): <0.06 µg/mL
MIC Streptococcus pyogenes (GC 4563) ([4]; strain GC 4563): <0.06 µg/mL
MIC Streptococcus agalactiae (GC 4564) ([4]; strain GC 4564): <0.06 µg/mL
MIC Streptococcus pneumoniae (GC 4565) ([4]; strain GC 4565): <0.06 µg/mL
median effective dose (ED50), Staphylococcus aureus-SMITH (GC 4543) [5]: 0.1 mg/kg
